Experimental data reported in patent US10106556B2, “Heterocyclic compound” (TAKEDA PHARMACEUTICAL COMPANY LIMITED, priority 2015, dated 2018).

Target: T1, His-hMAGL (recombinant polyhistidine tagged human MAGL protein) (Homo sapiens, UniProt Q99685)
T1 construct: made in house; host or cells: E. coli BL21(DE3)
T1 sequence (Q99685 1-303): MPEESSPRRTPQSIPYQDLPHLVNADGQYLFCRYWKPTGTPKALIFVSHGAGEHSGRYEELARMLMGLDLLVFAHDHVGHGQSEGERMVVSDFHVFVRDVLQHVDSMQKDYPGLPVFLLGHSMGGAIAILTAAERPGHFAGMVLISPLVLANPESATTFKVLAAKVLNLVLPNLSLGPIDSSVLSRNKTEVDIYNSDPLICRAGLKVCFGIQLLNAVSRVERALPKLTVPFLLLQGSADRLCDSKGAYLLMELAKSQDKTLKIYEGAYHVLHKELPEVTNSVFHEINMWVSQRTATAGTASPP
Experiment: Measurement of MAGL inhibitory activity (arachidonic acid production from 2-arachidonylglycerol, RapidFire-mass spectrometry)
Type: biochemical
Settings: MAGL inhibitory rate at 10 μM test compound; 60 min preincubation with His-hMAGL, 2-arachidonylglycerol substrate, 10 min reaction at room temperature
Method in brief: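 Recombinant His-tagged human MAGL converted 2-arachidonylglycerol to arachidonic acid. Reactions received acetonitrile with 3 μM arachidonic acid-d8 as internal standard, and product was quantified by RapidFire SPE (C4) with negative-mode SRM mass spectrometry. Percent inhibition was calculated against compound-free and enzyme-free controls.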

Structure (SMILES) | inhibition at 10 µM [%]
O=C1COc2cc(F)c(C(=O)N3CCC(COC4CCOCC4)CC3)cc2N1 [Example 83, 7-fluoro-6-((4-((tetrahydro-2H-pyran-4-yloxy)methyl)piperidin-1-yl)carbonyl)-2H-1,4-benzoxazin-3(4H)-one] | 86
CC(Oc1ccc(F)cc1F)C1CN(C(=O)c2cc3c(cc2F)OCC(=O)N3)C1 (centres unmarked) [Example 298, 6-((3-(1-(2,4-difluorophenoxy)ethyl)azetidin-1-yl)carbonyl)-7-fluoro-2H-1,4-benzoxazin-3(4H)-one] | 99
Cc1ccc(OCC2CN(C(=O)c3cc4c(cc3F)OCC(=O)N4)C2)c(C)n1 [Example 141, 6-((3-(((2,6-dimethylpyridin-3-yl)oxy)methyl)azetidin-1-yl)carbonyl)-7-fluoro-2H-1,4-benzoxazin-3(4H)-one] | 102
O=C1COc2cc(F)c(C(=O)N3CC(OCc4ccc(N5CC(F)C5)cc4Cl)C3)cc2N1 [Example 353, 6-((3-((2-chloro-4-(3-fluoroazetidin-1-yl)benzyl)oxy)azetidin-1-yl)carbonyl)-7-fluoro-2H-1,4-benzoxazin-3(4H)-one] | 100
Cc1cc(C)c(OCC2CCN(C(=O)c3ccc4c(c3)NC(=O)CO4)CC2)cn1 [Example 39] | 100
CN1CC=C(c2ccc(OCC3CN(C(=O)c4cc5c(cc4F)OCC(=O)N5)C3)c(F)c2)CC1 [Example 245, 7-fluoro-6-((3-((2-fluoro-4-(1-methyl-1,2,3,6-tetrahydropyridin-4-yl)phenoxy)methyl)azetidin-1-yl)carbonyl)-2H-1,4-benzoxazin-3(4H)-one] | 96
CCc1ncccc1-c1ccc(OCC2CN(C(=O)c3cc4c(cc3F)OCC(=O)N4)C2)c(F)c1 [Example 233, 6-((3-((4-(2-ethylpyridin-3-yl)-2-fluorophenoxy)methyl)azetidin-1-yl)carbonyl)-7-fluoro-2H-1,4-benzoxazin-3(4H)-one] | 100
O=C1COc2ccc(C(=O)N3CC(OCc4ccc(Cl)cc4Cl)C3)cc2N1 [Example 325, 6-((3-((2,4-dichlorobenzyl)oxy)azetidin-1-yl)carbonyl)-2H-1,4-benzoxazin-3(4H)-one] | 101
O=C1COc2ccc(C(=O)N3CCC(COc4cccc5[nH]ncc45)CC3)cc2N1 [Example 64, 6-((4-((1H-indazol-4-yloxy)methyl)piperidin-1-yl)carbonyl)-2H-1,4-benzoxazin-3(4H)-one] | 101
O=C1COc2cc(F)c(C(=O)N3CC(COc4ccc(-c5ccc(Cl)cn5)cc4F)C3)cc2N1 [Example 229, 6-((3-((4-(5-chloropyridin-2-yl)-2-fluorophenoxy)methyl)azetidin-1-yl)carbonyl)-7-fluoro-2H-1,4-benzoxazin-3(4H)-one] | 88
O=C1COc2cc(F)c(C(=O)N3CC(COc4ccc(Cl)cc4Cl)C3)cc2N1 [Example 76, 6-((3-((2,4-dichlorophenoxy)methyl)azetidin-1-yl)carbonyl)-7-fluoro-2H-1,4-benzoxazin-3(4H)-one] | 105
O=C1COc2cc(F)c(C(=O)N3CC(COc4ccc(Cl)cc4-c4cccnc4Cl)C3)cc2N1 [Example 198, 6-((3-((4-chloro-2-(2-chloropyridin-3-yl)phenoxy)methyl)azetidin-1-yl)carbonyl)-7-fluoro-2H-1,4-benzoxazin-3(4H)-one] | 100
O=C1COc2cc(F)c(C(=O)N3CCC(COc4ccc(-c5ccccc5)cc4)CC3)cc2N1 [Example 149, 6-((4-((biphenyl-4-yloxy)methyl)piperidin-1-yl)carbonyl)-7-fluoro-2H-1,4-benzoxazin-3(4H)-one] | 85
Cc1cc(OCC2CN(C(=O)c3cc4c(cc3F)OCC(=O)N4)C2)ccc1F [Example 287, 7-fluoro-6-((3-((4-fluoro-3-methylphenoxy)methyl)azetidin-1-yl)carbonyl)-2H-1,4-benzoxazin-3(4H)-one] | 100
O=C1COc2cc(F)c(C(=O)N3CC(COc4ccccc4Cl)C3)cc2N1 [Example 113, 6-((3-((2-chlorophenoxy)methyl)azetidin-1-yl)carbonyl)-7-fluoro-2H-1,4-benzoxazin-3(4H)-one] | 101
O=C1COc2cc(F)c(C(=O)N3CC(OCc4ccc(Cl)cc4F)C3)cc2N1 [Example 349, 6-((3-((4-chloro-2-fluorobenzyl)oxy)azetidin-1-yl)carbonyl)-7-fluoro-2H-1,4-benzoxazin-3(4H)-one] | 100

Structure (SMILES) | inhibition at 10 µM [%]
O=C1COc2cc(F)c(C(=O)N3CC(COc4ccc(-c5ccc(F)nc5)cc4F)C3)cc2N1 [Example 238, 7-fluoro-6-((3-((2-fluoro-4-(6-fluoropyridin-3-yl)phenoxy)methyl)azetidin-1-yl)carbonyl)-2H-1,4-benzoxazin-3(4H)-one] | 99
COc1cc2c(cc1C(=O)N1CCC(COc3ccc(F)cc3Cl)CC1)NC(=O)CO2 [Example 97, 6-((4-((2-chloro-4-fluorophenoxy)methyl)piperidin-1-yl)carbonyl)-7-methoxy-2H-1,4-benzoxazin-3(4H)-one] | 100
O=C1COc2cc(F)c(C(=O)N3CC(CC(F)(F)c4ccc(F)cc4Cl)C3)cc2N1 [Example 356, 6-((3-(2-(2-chloro-4-fluorophenyl)-2,2-difluoroethyl)azetidin-1-yl)carbonyl)-7-fluoro-2H-1,4-benzoxazin-3(4H)-one] | 102
Cc1nn(C)cc1-c1ccc(OCC2CN(C(=O)c3cc4c(cc3F)OCC(=O)N4)C2)c(F)c1 [Example 249, 6-((3-((4-(1,3-dimethyl-1H-pyrazol-4-yl)-2-fluorophenoxy)methyl)azetidin-1-yl)carbonyl)-7-fluoro-2H-1,4-benzoxazin-3(4H)-one] | 101
O=C1COc2cc(F)c(C(=O)N3CC(COc4ccc(Cl)cc4-c4cccnc4)C3)cc2N1 [Example 192, 6-((3-((4-chloro-2-(pyridin-3-yl)phenoxy)methyl)azetidin-1-yl)carbonyl)-7-fluoro-2H-1,4-benzoxazin-3(4H)-one] | 99
O=C1COc2ncc(C(=O)N3CCC(COc4ccc(Cl)cc4Cl)CC3)cc2N1 [Example 17, 7-((4-((2,4-dichlorophenoxy)methyl)piperidin-1-yl)carbonyl)-1H-pyrido[2,3-b][1,4]oxazin-2 (3H)-one] | 101
O=C1COc2cc(F)c(C(=O)N3CC(COc4ccc(C5=CCOCC5)cc4F)C3)cc2N1 [Example 244, 6-((3-((4-(3,6-dihydro-2H-pyran-4-yl)-2-fluorophenoxy)methyl)azetidin-1-yl)carbonyl)-7-fluoro-2H-1,4-benzoxazin-3(4H)-one] | 100
Cc1nn(C)c(C)c1-c1cc(Cl)ccc1OCC1CN(C(=O)c2cc3c(cc2F)OCC(=O)N3)C1 [Example 267, 6-((3-((4-chloro-2-(1,3,5-trimethyl-1H-pyrazol-4-yl)phenoxy)methyl)azetidin-1-yl)carbonyl)-7-fluoro-2H-1,4-benzoxazin-3(4H)-one] | 101
O=C1COc2cc(F)c(C(=O)N3CC(OCc4ccccc4Cl)C3)cc2N1 [Example 342, 6-((3-((2-chlorobenzyl)oxy)azetidin-1-yl)carbonyl)-7-fluoro-2H-1,4-benzoxazin-3(4H)-one] | 102
Cc1nc2c(cc1C(=O)N1CCC(COc3ccc(F)cc3Cl)CC1)NC(=O)CO2 [Example 145, 7-((4-((2-chloro-4-fluorophenoxy)methyl)piperidin-1-yl)carbonyl)-6-methyl-1H-pyrido[2,3-b][1,4]oxazin-2(3H)-one] | 88
O=C1COc2cc(F)c(C(=O)N3CC(COCc4ccc5scnc5c4)C3)cc2N1 [Example 272, 6-((3-((1,3-benzothiazol-5-ylmethoxy)methyl)azetidin-1-yl)carbonyl)-7-fluoro-2H-1,4-benzoxazin-3(4H)-one] | 100
O=C1COc2cc(F)c(C(=O)N3CC(COc4ccc(-c5cccc(F)n5)cc4F)C3)cc2N1 [Example 289, 7-fluoro-6-((3-((2-fluoro-4-(6-fluoropyridin-2-yl)phenoxy)methyl)azetidin-1-yl)carbonyl)-2H-1,4-benzoxazin-3(4H)-one] | 88
O=C1COc2cc(F)c(C(=O)N3CC(COc4ccc(Cl)cc4-c4cnn(C(F)F)c4)C3)cc2N1 [Example 214, 6-((3-((4-chloro-2-(1-(difluoromethyl)-1H-pyrazol-4-yl)phenoxy)methyl)azetidin-1-yl)carbonyl)-7-fluoro-2H-1,4-benzoxazin-3(4H)-one] | 104
O=C1COc2cc(F)c(C(=O)N3CC(OCc4ccccc4F)C3)cc2N1 [Example 330, 7-fluoro-6-((3-((2-fluorobenzyl)oxy)azetidin-1-yl)carbonyl)-2H-1,4-benzoxazin-3(4H)-one] | 102
O=C1COc2cc(F)c(C(=O)N3CC(COc4cccc(Cl)c4Cl)C3)cc2N1 [Example 123, 6-((3-((2,3-dichlorophenoxy)methyl)azetidin-1-yl)carbonyl)-7-fluoro-2H-1,4-benzoxazin-3(4H)-one] | 102
CC(C)(O)c1cc(F)ccc1OCC1CCN(C(=O)c2cc3c(cc2F)OCC(=O)N3)CC1 [Example 91, 7-fluoro-6-((4-((4-fluoro-2-(2-hydroxypropan-2-yl)phenoxy)methyl)piperidin-1-yl)carbonyl)-2H-1,4-benzoxazin-3(4H)-one] | 99
